# Reference: paper PMC12040169 (PLOS Biology, 2025)
# Experiment: in vitro
# Conditions: human, hela cells, % viability
row,Structure (SMILES),"viability at 28.5 h, 10 µM [%]"
1,Cc1ccc(-c2nn(-c3ccccc3)cc2C2CC(c3cccs3)=NN2C(=O)CCC(=O)O)cc1 (stereo not shown) [CBK296126],107
2,COCCNc1cc(-c2ccncc2)ncn1 [CBK037729],87.6
3,CC(Oc1ccccc1)C(=O)NCCN1CCOCC1 (stereo not shown) [CBK263812],94.1
4,O=C(O)c1ccc2[nH]cc(CN3CCOCC3)c2c1 [CBK287081],89.9
5,CNc1ncnc2c1ncn2C1CC(O)C(CO)O1 (stereo not shown) [CBK201308],96.7
6,CC(NS(=O)(=O)c1ccccc1Cl)C(=O)N1CCCC1 (stereo not shown) [CBK305994],93.2
7,CC(C)OCC(O)Cn1c(N/N=C/c2ccccc2O)nc2c1c(=O)[nH]c(=O)n2C (stereo not shown) [CBK139853],101
8,CN1CCN(C(=O)c2cnn(-c3ccccc3)c2NC(=O)c2ccc(F)cc2)CC1 [CBK265198],88.3
9,c1cnc(N2CCN(CC3CC3)CC2)c(OCCN2CCOCC2)n1 [CBK082909],87.2
10,CNC(=O)c1ccc(-c2ccc(CNC(=O)C3(c4cccc(F)c4)CCCC3)cc2)nc1C [CBK286013],105
11,Cc1c(NC(=O)Nc2ccccc2)sc(=S)n1C [CBK027434],90.6
12,Nc1ncc(-c2ccoc2)nc1-c1ccc(F)c(Cl)c1 [CBK063982],93.9
13,CC(NC(C)(C)C)C(O)COc1ccc(Cl)c2c1C1CCC2CC1 (stereo not shown) [CBK017752C],89.6
14,Cc1ccc(/C(N)=N/OC(=O)COc2cccc3ccccc23)cc1 [CBK263009],98.5
15,O=C(O)CCC(=O)Nc1nc(-c2ccc(Cl)cc2)cs1 [CBK299829],86.8
16,C=CCS(=O)(=O)N1CCC(c2nc(C)n3c(C)csc23)CC1 [CBK285251],80
17,CCCOc1ccc(C(=O)NCc2ccccn2)cc1 [CBK269789],93.9
18,CC(=O)c1nnnn1C(C)(C)Cc1ccccc1 [CBK022088],91.3
19,Cc1cc(C(=O)Nc2ccccc2C(=O)O)ccc1NC(=O)CC(C)C [CBK263616],101
20,O=C(O)c1ccc(NS(=O)(=O)c2ccc(Br)c3ccccc23)cc1O [CBK299772],86.5
21,CCOC(=O)C1(C2CCCCC2)CCN(C(=O)c2ccc(OC(F)(F)F)cc2)CC1 [CBK136921],96.2
22,O=C(N[C@H]1C2CCCCC2[C@@H]1c1ccccc1)c1cncnc1 (stereo partly shown) [CBK282949],94.3

row,Structure (SMILES),"viability at 28.5 h, 10 µM [%]"
1,CC1CCN(C(=O)c2cccc(Cn3cc(Br)cn3)c2)CC1 [CBK058482],91.8
2,CC(Oc1cccc(Cl)c1)n1cnnc1 (stereo not shown) [CBK022246],100
3,CS(=O)(=O)Nc1cc2ccccc2c(-c2ccc3c(c2)CCO3)n1 [CBK073773],90.5
4,O=C(NCc1ccccn1)/C(=N/O)c1ccccc1 [CBK288472],114
5,O=C(O)CCCc1nc(-c2cnc3n(c2=O)CCS3)no1 [CBK008438],90.1
6,COc1ccc(CCNC(=O)c2ccn[nH]2)cc1OC [CBK288234],92.2
7,Nc1ccc2c(-c3cc(F)cc(F)c3)ccnc2n1 [CBK067638],93.4
8,COc1ccccc1C(=O)N1CCN(Cc2cc(OC)c(O)c(OC)c2)CC1 [CBK263484],101
9,Oc1cc(C(F)(F)F)nc(N2CCc3ccccc3C2)n1 [CBK000344],82
10,c1ccc2c(c1)OCC(COc1nccc(N3CCCN(Cc4ccc5c(c4)OCO5)CC3)n1)O2 (stereo not shown) [CBK083235T],85.7
11,O=C(O)CCc1ccc(NS(=O)(=O)c2ccc(N3CCCC3=O)cc2)cc1 [CBK299788],116
12,Cn1nc(-c2ccc(S(=O)(=O)Nc3nc(=O)[nH]cc3F)s2)cc1C(F)(F)F [CBK067574],96.8
13,CSCCC(=O)Nc1cccc2[nH]ccc12 [CBK159655],105
14,NC(=O)[C@@H]1C[C@@H](O)[C@H](O)[C@H]2[C@@H]1N(c1ccc(Cl)cc1)C(=S)N2Cc1cccs1 [CBK288930],94.7
15,COc1ccccc1-c1nccnc1OCCC(C)C [CBK106818],109
16,O=[N+]([O-])c1ccc(N2CCN(S(=O)(=O)c3ccccc3)CC2)cc1NCc1cccnc1 [CBK264415],96.5
17,c1ccc(OCc2nn3c(Cn4cnc5ccccc54)nnc3s2)cc1 [CBK268446],99.2
18,C=CCn1c(-c2sc(NC(=O)c3cc4ccccc4s3)nc2C)n[nH]c1=S [CBK295303],94.8
19,CC(=O)N1CC[C@H]2NC(=O)CNC(=O)C3(CCCC[C@H]2C1)CCN(C(=O)CN1CCCCC1)CC3 [CBK292120],104
20,Oc1nc(CSc2nnc(-c3ccncc3)n2-c2ccccc2)nc2ccccc12 [CBK264851],97.5
21,C[C@@H]1C[C@H](C)CN(C(C(=O)O)c2c[nH]c3ccccc23)C1 (stereo partly shown) [CBK286868],94.3
22,COc1cc([C@@H]2c3cc4c(cc3[C@H](O)[C@H]2C(=O)Nc2ccccc2)OCO4)cc(OC)c1OC [CBK200106],101

row,Structure (SMILES),"viability at 28.5 h, 10 µM [%]"
1,CNC(=O)N(O)C1N(NC(=O)Nc2ccccc2)C(=S)SC1(C)C (stereo not shown) [CBK261005],94.9
2,Cc1nc2ccccn2c1CC(=O)N1CCCC(c2ccc(Cc3cccc(F)c3)cn2)C1 (stereo not shown) [CBK286002],91.3
3,COc1cccc2cc(C(=O)N3CCN(C4CCN(C)CC4)CC3)oc12 [CBK149086],91.2
4,N#Cc1cccc(CSc2nnc(-c3ccccc3O)n2Cc2ccccc2)c1 [CBK267395],85.8
5,O=C(O)CSc1nccn1Cc1ccccc1 [CBK262215],103
6,COc1ccc(C(NC(=O)Cc2ccc(-n3nnnc3C)cc2)c2ccccc2)cc1 (stereo not shown) [CBK285537],92.8
7,CC1(C)COC(=O)N1C1CCN(C(=O)CCS/C=C\c2ccccc2)CC1 [CBK045134],95.3
8,COc1ccc(-c2cn3ccnc3c(Nc3ccc(N4CCOCC4)cc3)n2)cc1 [CBK066265],98.5
9,O=C(NCCN1CCCC1)C1CCCN(c2nc3c(-c4ccccc4)csc3c(=O)[nH]2)C1 (stereo not shown) [CBK215507],109
10,Cc1cc(C)c2c(c1)-c1c(ssc1=S)C(C)(C)N2C(=O)CSc1nncn1C [CBK263035],106
11,Cc1ccc(C(=O)NCCC(=O)Nc2ccccc2C)cc1 [CBK268569],103
12,CCCc1cc(CNC(=O)c2cc(C3CC3)nn2C)on1 [CBK282048],102
13,Cc1ccc(NC(=O)CSc2nnc(C(O)c3ccccc3)n2-c2ccccc2)c(Br)c1 (stereo not shown) [CBK267421],89.8
14,Cc1occc1C(=O)Nc1cnn(CCCC(=O)O)c1 [CBK270116],89.4
15,Cc1cc(-c2nccnc2NCc2cccc(Cl)c2)cc(C)c1O [CBK036646],87.4
16,NC(=O)C(=O)Nc1nc(-c2ccccc2)cs1 [CBK263005],98.4
17,COc1ccccc1NC(=O)Cn1cnc2sc(C(=O)NC(C)C)c(C)c2c1=O [CBK071847],93
18,CC(C)CNc1nccnc1-c1cccc(C=O)c1 [CBK088744],100
19,Cc1cc(C)c2c(C)nn(-c3ccc(C(=O)O)cc3)c2n1 [CBK267480],89.6
20,O=C(CSCc1ccccc1Br)Nc1ccccc1-c1ccccc1 [CBK265959],88.4
21,Cc1cc(C(=O)N2CCC(Cc3ccccc3-c3ccccc3)(C(=O)N(C)C)CC2)cs1 [CBK285676],116
22,COc1ccc(C2C(C(=O)O)c3ccccc3C(=O)N2C)cc1 (stereo not shown) [CBK286847],85.8

row,Structure (SMILES),"viability at 28.5 h, 10 µM [%]"
1,O=c1c(N2CCNCC2)nccn1CCOc1cccc(Cl)c1Cl [CBK013463],92.2
2,O=C(C1CCCC1)N1CCC(n2c(=O)oc3ccccc32)CC1 [CBK284349],83.7
3,CCOc1ccccc1C(=O)N1CCC(Cc2cccc(-c3cccs3)c2)(C(N)=O)CC1 [CBK285914],84.9
4,Cc1ccc(C(=O)N2CCN(C(=O)CN3CCN(C)CC3)C2)cc1 [CBK024841C],76.4
5,O=C(c1ccccc1F)N1CCC(n2cnc3cccnc32)CC1 [CBK283937],87.5
6,Cc1ccc2cc(CNc3ccc4[nH]ncc4c3)c(=O)[nH]c2c1 [CBK281935],86.1
7,CCOc1ccc2[nH]c(C(=O)NC3CCCOC3)cc2c1 (stereo not shown) [CBK283114],101
8,CC(C)OC(=O)N1CCC(CNc2ncc(-c3ccc(S(C)(=O)=O)cc3)cn2)CC1 [CBK165367],99.1
9,CC(=O)N1c2ccc(NC(=O)C3(C)CCCO3)cc2CC1C (stereo not shown) [CBK282702],98.5
10,O=C(O)C1CC=CCC1C(=O)Nc1ccc(CN2CCOCC2)cc1 (stereo not shown) [CBK299786],107
11,COc1ccc(CN(CCN(C)C)C(=O)NCc2ccc(-c3ccccc3)cc2)cc1OC [CBK159293],91.4
12,CC(C)(C)c1cc(C(=O)N2CCN(c3ncccn3)CC2)n(Cc2ccc(Cl)cc2Cl)n1 [CBK107294],105
13,CCc1nc2ccc(C(=O)NC3=NN(c4ccccc4)C(=O)C3)cn2c1N(C)Cc1cccs1 [CBK145557],93
14,Clc1ccc(-c2c[nH]cn2)cc1 [CBK027542],111
15,C[C@H](C(=O)N1CCCC1)C1CC[C@@]2(C)Cc3sc(NC(=O)C4CC4)nc3[C@@H](C)[C@@H]2[C@H]1O (stereo partly shown) [CBK289432],103
16,Cc1ccccc1-c1nc(S(=O)(=O)c2ccc(Cl)cc2)c(NCC2CCCO2)o1 (stereo not shown) [CBK267668],113
17,COc1ccnc(N2CCN(C(=O)C3(C#N)CCCCC3)CC2)n1 [CBK305739],92.2
18,O=C(C1CC1)N1CCCC1c1nc(-c2ccc(F)cc2)n[nH]1 (stereo not shown) [CBK283934],102
19,CCC(C)(C)c1ccc(S(=O)(=O)N(CCC#N)Cc2cccnc2)cc1 [CBK043960],89.6
20,c1cncc(OCCOc2nsnc2N2CCNCC2)c1 [CBK001825G],94.4
21,CC(=O)C(/N=N\c1ccc(S(=O)(=O)Nc2nccs2)cc1)C(=O)Nc1ccc(Cl)cc1 (stereo not shown) [CBK015826],86.8

# Same assay, conditions: human, hela cells, % viability, bulk resorufin, single well
row,Structure (SMILES),"viability at 28.5 h, 10 µM [%]"
1,O=C1NC(=S)NC(=O)C1=Cc1ccc(OCc2ccccc2F)c(Br)c1 [CBK264257],97.7
